{"source": "patent US20090170899A1", "about": "“Stimulators of 5-HT4 receptors and uses thereof” (priority 2004, published 2009)", "key": {"[1]": {"tested_on": "BrdU-positive cells in the sub-granular zone (SGZ) of the hippocampus", "conditions": "cited from earlier work"}, "DRN 5-HT neurons": {"tested_on": "DRN 5-HT neurons", "experiment": "Reversal by acute prucalopride of the inhibition of DRN 5-HT neuron firing rate induced by i.v. SSRIs", "assay_type": "in vivo, rat", "conditions": "acute intravenous administration", "text": "FIGS. 6A and 6B illustrate the effect of prucalopride on the inhibition of 5-HT neuronal firing rate induced by SSRIs fluxoamine and citalopram.\nIn FIGS. 6A and 6B, the firing activity of the 5-HT neuron is suppressed following the acute intravenous administration of the antidepressant SSRIs fluvoxamine and citalopram. This suppression of the firing activity is due to the activation of the 5-HT1A autoreceptors, subsequent to the increase of the concentration of endogenous 5-HT, following the blockade of the 5-HT reuptake sites."}}}
{"smiles": "CNCCC(Oc1ccc(C(F)(F)F)cc1)c1ccccc1", "note": "(stereo not shown) [fluoxetine]", "values": [{"measurement": "increase of hippocampal neurogenesis", "setting": "[1]; 14-day treatment, Malberg et al., 2000", "result": "+35%"}, {"measurement": "quickest effect reported on hippocampal neurogenesis", "setting": "[1]; Santarelli et al., 2003", "result": 11, "unit": "days"}, {"measurement": "activity on hippocampal neurogenesis", "setting": "[1]; at 5 days, Santarelli et al., 2003", "result": "inactive"}]}
{"smiles": "COCCCC/C(=N\\OCCN)c1ccc(C(F)(F)F)cc1", "note": "[fluvoxamine]", "values": [{"measurement": "firing activity of the 5-HT neuron after SSRI", "setting": "DRN 5-HT neurons", "result": "suppressed"}]}
